{
  "source": "patent US20250074970A1",
  "about": "“METHOD OF PURIFYING IMMUNOGLOBULIN G AND USES THEREOF” (CSL Behring AG, priority 2021, published 2025)",
  "test_system": "Vesicular stomatitis virus (VSV)",
  "format": "cell-based",
  "conditions": "30 mM final concentration of OG at 5° C., VSV spiked CRP",
  "data": [
    {"molecule": "CCCCCCCCO[C@@H]1O[C@H](CO)[C@@H](O)[C@H](O)[C@H]1O", "note": "[OG, N-Octyl-β-D-Glucopyranoside]", "values": [
      {"measurement": "log 10 reduction factor (LRF)", "result": "≥ 5.3"}
    ]}
  ]
}
